Reference: ChEMBL document CHEMBL3352800, “Structure-guided discovery of 1,3,5-triazine-pyrazole conjugates as antibacterial and antibiofilm agent against pathogens causing human diseases with favorable metabolic fate” (2014)
Converted amounts (≈) assume the structure as drawn.

Columns and labels:
Format in all cases: functional
Escherichia coli = assay: Antibacterial activity against Escherichia coli NCIM-2065 after 24 hrs by broth dilution method; conditions: NCIM-2065, 24 h
Pseudomonas aeruginosa = assay: Antibacterial activity against Pseudomonas aeruginosa NCIM-2036 after 24 hrs by broth dilution method; conditions: NCIM-2036, 24 h
Bacillus cereus = assay: Antibacterial activity against Bacillus cereus NCIM-2156 after 24 hrs by broth dilution method; conditions: NCIM-2156, 24 h
Bacillus subtilis = assay: Antibacterial activity against Bacillus subtilis NCIM-2063 after 24 hrs by broth dilution method; conditions: NCIM-2063, 24 h
Staphylococcus aureus [1] = assay: Antibiofilm activity against Staphylococcus aureus NCIM-2079 after 16 hrs
Staphylococcus aureus [2] = assay: Antibacterial activity against Staphylococcus aureus NCIM-2079 after 24 hrs by broth dilution method; conditions: NCIM-2079, 24 h
Proteus vulgaris = assay: Antibacterial activity against Proteus vulgaris NCIM-2027 after 24 hrs by broth dilution method; conditions: NCIM-2027, 24 h

SMILES | MIC (Escherichia coli) | MIC (Pseudomonas aeruginosa) | MIC (Bacillus cereus) | MIC (Bacillus subtilis) | Activity (Staphylococcus aureus [1]) | MIC (Staphylococcus aureus [2]) | MIC (Proteus vulgaris)
S=C(Nc1nc(Nc2ccc(Cl)cc2)nc(Nc2ccc(Cl)cc2)n1)N1N=C(c2ccccc2)CC1c1ccccc1 (configuration not stated) | 31.2 µg/mL (≈ 51.1 µM) | 31.2 µg/mL (≈ 51.1 µM) | 31.2 µg/mL (≈ 51.1 µM) | 7.81 µg/mL (≈ 12.8 µM) | 31.25 µg/mL | 15.6 µg/mL (≈ 25.5 µM) | 15.6 µg/mL (≈ 25.5 µM)
O=[N+]([O-])c1ccccc1C1CC(c2ccccc2)=NN1C(=S)Nc1nc(Nc2ccc(Cl)cc2)nc(Nc2ccc(Cl)cc2)n1 (configuration not stated) | 125 µg/mL (≈ 190 µM) | 125 µg/mL (≈ 190 µM) | 31.2 µg/mL (≈ 47.6 µM) | 15.6 µg/mL (≈ 23.8 µM) | 125 µg/mL | 62.5 µg/mL (≈ 95.2 µM) | 62.5 µg/mL (≈ 95.2 µM)
O=[N+]([O-])c1ccc(C2CC(c3ccccc3)=NN2C(=S)Nc2nc(Nc3ccc(Cl)cc3)nc(Nc3ccc(Cl)cc3)n2)cc1 (configuration not stated) | 62.5 µg/mL (≈ 95.2 µM) | 62.5 µg/mL (≈ 95.2 µM) | 125 µg/mL (≈ 190 µM) | 31.2 µg/mL (≈ 47.6 µM) | 125 µg/mL | 125 µg/mL (≈ 190 µM) | 62.5 µg/mL (≈ 95.2 µM)
S=C(Nc1nc(Nc2ccc(Cl)cc2)nc(Nc2ccc(Cl)cc2)n1)N1N=C(c2ccccc2)CC1c1ccccc1Cl (configuration not stated) | 15.6 µg/mL (≈ 24.2 µM) | 15.6 µg/mL (≈ 24.2 µM) | 62.5 µg/mL (≈ 96.7 µM) | 3.91 µg/mL (≈ 6.05 µM) | 31.25 µg/mL | 15.6 µg/mL (≈ 24.2 µM) | 15.6 µg/mL (≈ 24.2 µM)
S=C(Nc1nc(Nc2ccc(Cl)cc2)nc(Nc2ccc(Cl)cc2)n1)N1N=C(c2ccccc2)CC1c1ccc(Cl)cc1 (configuration not stated) | 7.81 µg/mL (≈ 12.1 µM) | 7.81 µg/mL (≈ 12.1 µM) | 15.6 µg/mL (≈ 24.2 µM) | 3.91 µg/mL (≈ 6.05 µM) | 62.5 µg/mL | 15.6 µg/mL (≈ 24.2 µM) | 15.6 µg/mL (≈ 24.2 µM)
O=[N+]([O-])c1cccc(Nc2nc(NC(=S)N3N=C(c4ccccc4)CC3c3ccccc3)nc(Nc3cccc([N+](=O)[O-])c3)n2)c1 (configuration not stated) | 7.81 µg/mL (≈ 12.3 µM) | 7.81 µg/mL (≈ 12.3 µM) | 7.81 µg/mL (≈ 12.3 µM) | 15.6 µg/mL (≈ 24.7 µM) | 31.25 µg/mL | 7.81 µg/mL (≈ 12.3 µM) | 7.81 µg/mL (≈ 12.3 µM)
O=[N+]([O-])c1cccc(Nc2nc(NC(=S)N3N=C(c4ccccc4)CC3c3ccccc3[N+](=O)[O-])nc(Nc3cccc([N+](=O)[O-])c3)n2)c1 (configuration not stated) | 125 µg/mL (≈ 184 µM) | 125 µg/mL (≈ 184 µM) | 62.5 µg/mL (≈ 92.2 µM) | 62.5 µg/mL (≈ 92.2 µM) | 125 µg/mL | 15.6 µg/mL (≈ 23 µM) | 62.5 µg/mL (≈ 92.2 µM)
O=[N+]([O-])c1ccc(C2CC(c3ccccc3)=NN2C(=S)Nc2nc(Nc3cccc([N+](=O)[O-])c3)nc(Nc3cccc([N+](=O)[O-])c3)n2)cc1 (configuration not stated) | 62.5 µg/mL (≈ 92.2 µM) | 62.5 µg/mL (≈ 92.2 µM) | 125 µg/mL (≈ 184 µM) | 31.2 µg/mL (≈ 46.1 µM) | 62.5 µg/mL | 31.2 µg/mL (≈ 46.1 µM) | 62.5 µg/mL (≈ 92.2 µM)
O=[N+]([O-])c1cccc(Nc2nc(NC(=S)N3N=C(c4ccccc4)CC3c3ccccc3Cl)nc(Nc3cccc([N+](=O)[O-])c3)n2)c1 (configuration not stated) | 15.6 µg/mL (≈ 23.4 µM) | 15.6 µg/mL (≈ 23.4 µM) | 15.6 µg/mL (≈ 23.4 µM) | 15.6 µg/mL (≈ 23.4 µM) | 62.5 µg/mL | 15.6 µg/mL (≈ 23.4 µM) | 31.2 µg/mL (≈ 46.8 µM)
O=[N+]([O-])c1cccc(Nc2nc(NC(=S)N3N=C(c4ccccc4)CC3c3ccc(Cl)cc3)nc(Nc3cccc([N+](=O)[O-])c3)n2)c1 (configuration not stated) | 31.2 µg/mL (≈ 46.8 µM) | 31.2 µg/mL (≈ 46.8 µM) | 7.81 µg/mL (≈ 11.7 µM) | 7.81 µg/mL (≈ 11.7 µM) | 15.62 µg/mL | 15.6 µg/mL (≈ 23.4 µM) | 15.6 µg/mL (≈ 23.4 µM)
Fc1ccc(Nc2nc(NC(=S)N3N=C(c4ccccc4)CC3c3ccccc3)nc(Nc3ccc(F)cc3)n2)cc1 (configuration not stated) | 15.6 µg/mL (≈ 27 µM) | 15.6 µg/mL (≈ 27 µM) | 3.91 µg/mL (≈ 6.76 µM) | 7.81 µg/mL (≈ 13.5 µM) | 15.62 µg/mL | 7.81 µg/mL (≈ 13.5 µM) | 15.6 µg/mL (≈ 27 µM)
O=[N+]([O-])c1ccccc1C1CC(c2ccccc2)=NN1C(=S)Nc1nc(Nc2ccc(F)cc2)nc(Nc2ccc(F)cc2)n1 (configuration not stated) | 31.2 µg/mL (≈ 50.1 µM) | 31.2 µg/mL (≈ 50.1 µM) | 62.5 µg/mL (≈ 100 µM) | 31.2 µg/mL (≈ 50.1 µM) | 31.25 µg/mL | 31.2 µg/mL (≈ 50.1 µM) | 31.2 µg/mL (≈ 50.1 µM)
O=[N+]([O-])c1ccc(C2CC(c3ccccc3)=NN2C(=S)Nc2nc(Nc3ccc(F)cc3)nc(Nc3ccc(F)cc3)n2)cc1 (configuration not stated) | 31.2 µg/mL (≈ 50.1 µM) | 31.2 µg/mL (≈ 50.1 µM) | 31.2 µg/mL (≈ 50.1 µM) | 15.6 µg/mL (≈ 25 µM) | 62.5 µg/mL | 31.2 µg/mL (≈ 50.1 µM) | 62.5 µg/mL (≈ 100 µM)
Fc1ccc(Nc2nc(NC(=S)N3N=C(c4ccccc4)CC3c3ccccc3Cl)nc(Nc3ccc(F)cc3)n2)cc1 (configuration not stated) | 15.6 µg/mL (≈ 25.5 µM) | 15.6 µg/mL (≈ 25.5 µM) | 15.6 µg/mL (≈ 25.5 µM) | 7.81 µg/mL (≈ 12.7 µM) | 62.5 µg/mL | 15.6 µg/mL (≈ 25.5 µM) | 7.81 µg/mL (≈ 12.7 µM)
Fc1ccc(Nc2nc(NC(=S)N3N=C(c4ccccc4)CC3c3ccc(Cl)cc3)nc(Nc3ccc(F)cc3)n2)cc1 (configuration not stated) | 7.81 µg/mL (≈ 12.7 µM) | 7.81 µg/mL (≈ 12.7 µM) | 7.81 µg/mL (≈ 12.7 µM) | 3.91 µg/mL (≈ 6.38 µM) | 31.25 µg/mL | 31.2 µg/mL (≈ 51 µM) | 15.6 µg/mL (≈ 25.5 µM)
C=CC1=C(C(=O)O)N2C(=O)[C@@H](NC(=O)/C(=N\OCC(=O)O)c3csc(N)n3)[C@H]2SC1 [CEFIXIME] | 3.91 µg/mL (≈ 8.62 µM) | 3.91 µg/mL (≈ 8.62 µM) | 3.91 µg/mL (≈ 8.62 µM) | 1.95 µg/mL (≈ 4.3 µM) | – | 7.81 µg/mL (≈ 17.2 µM) | 7.81 µg/mL (≈ 17.2 µM)
CN[C@H](CC(C)C)C(=O)N[C@H]1C(=O)N[C@@H](CC(N)=O)C(=O)N[C@H]2C(=O)N[C@H]3C(=O)N[C@H](C(=O)N[C@H](C(=O)O)c4cc(O)cc(O)c4-c4cc3ccc4O)[C@H](O)c3ccc(c(Cl)c3)Oc3cc2cc(c3O[C@@H]2O[C@H](CO)[C@@H](O)[C@H](O)[C@H]2O[C@H]2C[C@](C)(N)[C@H](O)[C@H](C)O2)Oc2ccc(cc2Cl)[C@H]1O [VANCOMYCIN] | – | – | – | – | 3.91 µg/mL | – | –
